28 compounds from patent publication US10106556B2, “Heterocyclic compound” (TAKEDA PHARMACEUTICAL COMPANY LIMITED, priority 2015, dated 2018) can be followed below.

The inhibition is the relative decrease from the control value, in per cent.

The target of the test is T1, His-hMAGL (recombinant polyhistidine tagged human MAGL protein) (Homo sapiens, UniProt Q99685).
T1 construct: made in house; host or cells: E. coli BL21(DE3)
T1 sequence (Q99685 1-303): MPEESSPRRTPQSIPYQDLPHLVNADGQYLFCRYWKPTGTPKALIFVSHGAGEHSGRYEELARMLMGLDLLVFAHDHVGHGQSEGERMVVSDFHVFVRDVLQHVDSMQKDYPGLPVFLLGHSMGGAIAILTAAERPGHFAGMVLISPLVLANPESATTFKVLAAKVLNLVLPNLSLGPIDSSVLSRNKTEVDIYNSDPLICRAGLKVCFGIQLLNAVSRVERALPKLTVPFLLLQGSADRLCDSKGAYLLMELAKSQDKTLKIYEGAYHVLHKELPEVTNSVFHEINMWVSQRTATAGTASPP
Nature of the test: Measurement of MAGL inhibitory activity (arachidonic acid production from 2-arachidonylglycerol, RapidFire-mass spectrometry). Conditions: MAGL inhibitory rate at 10 μM test compound; 60 min preincubation with His-hMAGL, 2-arachidonylglycerol substrate, 10 min reaction at room temperature. Format: biochemical. In short, it runs like this:
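Inhibition (%) was derived from arachidonic acid levels relative to enzyme-free and compound-free groups. Product was measured by online C4 solid-phase extraction and triple-quadrupole MS in negative SRM mode, corrected by arachidonic acid-d8 (3 μM in the acetonitrile added). Substrate was 2-arachidonylglycerol; enzyme was His-tagged recombinant human MAGL.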
In the case of `CN1CC=C(c2ccc(OCC3CN(C(=O)c4cc5c(cc4F)OCC(=O)N5)C3)c(F)c2)CC1` [Example 245, 7-fluoro-6-((3-((2-fluoro-4-(1-methyl-1,2,3,6-tetrahydropyridin-4-yl)phenoxy)methyl)azetidin-1-yl)carbonyl)-2H-1,4-benzoxazin-3(4H)-one], the inhibition at 10 µM was determined as 96%. With `Cn1cc(-c2ccc(OCC3CN(C(=O)c4cc5c(cc4F)OCC(=O)N5)C3)c(F)c2)cn1` [Example 246, 7-fluoro-6-((3-((2-fluoro-4-(1-methyl-1H-pyrazol-4-yl)phenoxy)methyl)azetidin-1-yl)carbonyl)-2H-1,4-benzoxazin-3(4H)-one], the inhibition at 10 µM amounted to 96%. `O=C1COc2cc(F)c(C(=O)N3CC(COc4ccc(-c5cnn(C(F)F)c5)cc4F)C3)cc2N1` [Example 247, 6-((3-((4-(1-(difluoromethyl)-1H-pyrazol-4-yl)-2-fluorophenoxy)methyl)azetidin-1-yl)carbonyl)-7-fluoro-2H-1,4-benzoxazin-3(4H)-one]: the inhibition at 10 µM was 96%.

Regarding `O=C1COc2cc(F)c(C(=O)N3CC(COc4ccc(-c5cnn(C6CC6)c5)cc4F)C3)cc2N1` [Example 248, 6-((3-((4-(1-cyclopropyl-1H-pyrazol-4-yl)-2-fluorophenoxy)methyl)azetidin-1-yl)carbonyl)-7-fluoro-2H-1,4-benzoxazin-3(4H)-one], the inhibition at 10 µM is 98%. Take `Cc1nn(C)cc1-c1ccc(OCC2CN(C(=O)c3cc4c(cc3F)OCC(=O)N4)C2)c(F)c1` [Example 249, 6-((3-((4-(1,3-dimethyl-1H-pyrazol-4-yl)-2-fluorophenoxy)methyl)azetidin-1-yl)carbonyl)-7-fluoro-2H-1,4-benzoxazin-3(4H)-one]: the inhibition at 10 µM was found to be 101%. Turning to `Cc1c(-c2ccc(OCC3CN(C(=O)c4cc5c(cc4F)OCC(=O)N5)C3)c(F)c2)cnn1C` [Example 250, 6-((3-((4-(1,5-dimethyl-1H-pyrazol-4-yl)-2-fluorophenoxy)methyl)azetidin-1-yl)carbonyl)-7-fluoro-2H-1,4-benzoxazin-3(4H)-one], the inhibition at 10 µM turned out to be 101%. For the compound `Cc1nn(C)c(C)c1-c1ccc(OCC2CN(C(=O)c3cc4c(cc3F)OCC(=O)N4)C2)c(F)c1` [Example 251, 7-fluoro-6-((3-((2-fluoro-4-(1,3,5-trimethyl-1H-pyrazol-4-yl)phenoxy)methyl)azetidin-1-yl)carbonyl)-2H-1,4-benzoxazin-3(4H)-one], the inhibition at 10 µM stood at 100%. Turning to `Cn1ccc(-c2ccc(OCC3CN(C(=O)c4cc5c(cc4F)OCC(=O)N5)C3)c(F)c2)n1` [Example 252, 7-fluoro-6-((3-((2-fluoro-4-(1-methyl-1H-pyrazol-3-yl)phenoxy)methyl)azetidin-1-yl)carbonyl)-2H-1,4-benzoxazin-3(4H)-one], the inhibition at 10 µM came out at 99%. In the case of `Cc1cc(-c2ccc(OCC3CN(C(=O)c4cc5c(cc4F)OCC(=O)N5)C3)c(F)c2)nn1C` [Example 253, 6-((3-((4-(1,5-dimethyl-1H-pyrazol-3-yl)-2-fluorophenoxy)methyl)azetidin-1-yl)carbonyl)-7-fluoro-2H-1,4-benzoxazin-3(4H)-one], the inhibition at 10 µM came to 102%. As for `Cn1nccc1-c1ccc(OCC2CN(C(=O)c3cc4c(cc3F)OCC(=O)N4)C2)c(F)c1` [Example 254, 7-fluoro-6-((3-((2-fluoro-4-(1-methyl-1H-pyrazol-5-yl)phenoxy)methyl)azetidin-1-yl)carbonyl)-2H-1,4-benzoxazin-3(4H)-one], the figure is 102%. As for `Cn1cccc1-c1ccc(OCC2CN(C(=O)c3cc4c(cc3F)OCC(=O)N4)C2)c(F)c1` [Example 255, 7-fluoro-6-((3-((2-fluoro-4-(1-methyl-1H-pyrrol-2-yl)phenoxy)methyl)azetidin-1-yl)carbonyl)-2H-1,4-benzoxazin-3(4H)-one], the figure is 102%; as for `O=C1COc2cc(F)c(C(=O)N3CC(COc4ccc(-c5ccc(C(F)(F)F)nc5)cc4F)C3)cc2N1` [Example 256, 7-fluoro-6-((3-((2-fluoro-4-(6-(trifluoromethyl)pyridin-3-yl)phenoxy)methyl)azetidin-1-yl)carbonyl)-2H-1,4-benzoxazin-3(4H)-one], 98%.

As for `O=C1COc2cc(F)c(C(=O)N3CC(COc4ccc(-c5ccc6c(c5)CCO6)cc4F)C3)cc2N1` [Example 257, 6-((3-((4-(2,3-dihydro-1-benzofuran-5-yl)-2-fluorophenoxy)methyl)azetidin-1-yl)carbonyl)-7-fluoro-2H-1,4-benzoxazin-3(4H)-one], the inhibition at 10 µM stood at 99%.

As for `Cc1cc(-c2ccc(OCC3CN(C(=O)c4cc5c(cc4F)OCC(=O)N5)C3)c(F)c2)n(C)n1` [Example 259, 6-((3-((4-(1,3-dimethyl-1H-pyrazol-5-yl)-2-fluorophenoxy)methyl)azetidin-1-yl)carbonyl)-7-fluoro-2H-1,4-benzoxazin-3(4H)-one], the inhibition at 10 µM was 100%.

Regarding `Cc1nc(C)c(-c2ccc(OCC3CN(C(=O)c4cc5c(cc4F)OCC(=O)N5)C3)c(F)c2)s1` [Example 260, 6-((3-((4-(2,4-dimethyl-1,3-thiazol-5-yl)-2-fluorophenoxy)methyl)azetidin-1-yl)carbonyl)-7-fluoro-2H-1,4-benzoxazin-3(4H)-one], the inhibition at 10 µM is 100%. As to `O=C1COc2cc(F)c(C(=O)N3CC(COc4ccc(-c5cccnc5)cc4F)C3)cc2N1` [Example 261, 7-fluoro-6-((3-((2-fluoro-4-(pyridin-3-yl)phenoxy)methyl)azetidin-1-yl)carbonyl)-2H-1,4-benzoxazin-3(4H)-one], the inhibition at 10 µM came out at 98%. Regarding `Cc1ncccc1-c1ccc(OCC2CN(C(=O)c3cc4c(cc3F)OCC(=O)N4)C2)c(F)c1` [Example 262, 7-fluoro-6-((3-((2-fluoro-4-(2-methylpyridin-3-yl)phenoxy)methyl)azetidin-1-yl)carbonyl)-2H-1,4-benzoxazin-3(4H)-one], the inhibition at 10 µM is 98%.

Consider `Cc1ccc(-c2ccc(OCC3CN(C(=O)c4cc5c(cc4F)OCC(=O)N5)C3)c(F)c2)cn1` [Example 263, 7-fluoro-6-((3-((2-fluoro-4-(6-methylpyridin-3-yl)phenoxy)methyl)azetidin-1-yl)carbonyl)-2H-1,4-benzoxazin-3(4H)-one], for which the inhibition at 10 µM is 97%. Next, `Cc1cc(-c2ccc(OCC3CN(C(=O)c4cc5c(cc4F)OCC(=O)N5)C3)c(F)c2)ccn1` [Example 264, 7-fluoro-6-((3-((2-fluoro-4-(2-methylpyridin-4-yl)phenoxy)methyl)azetidin-1-yl)carbonyl)-2H-1,4-benzoxazin-3(4H)-one]: 101%; `Cc1nn(C)cc1-c1cc(Cl)ccc1OCC1CN(C(=O)c2cc3c(cc2F)OCC(=O)N3)C1` [Example 265, 6-((3-((4-chloro-2-(1,3-dimethyl-1H-pyrazol-4-yl)phenoxy)methyl)azetidin-1-yl)carbonyl)-7-fluoro-2H-1,4-benzoxazin-3(4H)-one]: 99%; `Cc1c(-c2cc(Cl)ccc2OCC2CN(C(=O)c3cc4c(cc3F)OCC(=O)N4)C2)cnn1C` [Example 266, 6-((3-((4-chloro-2-(1,5-dimethyl-1H-pyrazol-4-yl)phenoxy)methyl)azetidin-1-yl)carbonyl)-7-fluoro-2H-1,4-benzoxazin-3(4H)-one]: 99%. As to `Cc1nn(C)c(C)c1-c1cc(Cl)ccc1OCC1CN(C(=O)c2cc3c(cc2F)OCC(=O)N3)C1` [Example 267, 6-((3-((4-chloro-2-(1,3,5-trimethyl-1H-pyrazol-4-yl)phenoxy)methyl)azetidin-1-yl)carbonyl)-7-fluoro-2H-1,4-benzoxazin-3(4H)-one], the inhibition at 10 µM stood at 101%. As for `Cc1nc(C)c(-c2cc(Cl)ccc2OCC2CN(C(=O)c3cc4c(cc3F)OCC(=O)N4)C2)s1` [Example 268, 6-((3-((4-chloro-2-(2,4-dimethyl-1,3-thiazol-5-yl)phenoxy)methyl)azetidin-1-yl)carbonyl)-7-fluoro-2H-1,4-benzoxazin-3(4H)-one], the inhibition at 10 µM is 101%. On to `Cc1ccc(OCC2CN(C(=O)c3cc4c(cc3F)OCC(=O)N4)C2)cc1F` [Example 269, 7-fluoro-6-((3-((3-fluoro-4-methylphenoxy)methyl)azetidin-1-yl)carbonyl)-2H-1,4-benzoxazin-3(4H)-one], for which the inhibition at 10 µM came out at 101%.

Consider `O=C1COc2cc(F)c(C(=O)N3CC(COc4ccc(OC(F)F)cc4)C3)cc2N1` [Example 270, 6-((3-((4-(difluoromethoxy)phenoxy)methyl)azetidin-1-yl)carbonyl)-7-fluoro-2H-1,4-benzoxazin-3(4H)-one], for which the inhibition at 10 µM turned out to be 101%. As for `O=C1COc2cc(F)c(C(=O)N3CC(COCc4ccccc4)C3)cc2N1` [Example 271, 6-((3-((benzyloxy)methyl)azetidin-1-yl)carbonyl)-7-fluoro-2H-1,4-benzoxazin-3(4H)-one], the figure is 95%.

Take `O=C1COc2cc(F)c(C(=O)N3CC(COCc4ccc5scnc5c4)C3)cc2N1` [Example 272, 6-((3-((1,3-benzothiazol-5-ylmethoxy)methyl)azetidin-1-yl)carbonyl)-7-fluoro-2H-1,4-benzoxazin-3(4H)-one]: the inhibition at 10 µM was determined as 100%. As to `O=C1COc2cc(F)c(C(=O)N3CC(COc4ccc5c(c4)OCC5)C3)cc2N1` [Example 273, 6-((3-((2,3-dihydro-1-benzofuran-6-yloxy)methyl)azetidin-1-yl)carbonyl)-7-fluoro-2H-1,4-benzoxazin-3(4H)-one], the inhibition at 10 µM was 101%.
